# Measured values reported in patent publication US4490370A, “Naphthylglycyl cephalosporin derivatives” (priority 1983, dated 1984).
# Read-outs that look alike come from different tables or passages of the source.
# How the values were obtained:
# [1] = system: β-lactamase (organism 1313G); test: Stability to β-lactamases, 1313G; assay type: biochemical; conditions: lower numbers mean greater stability
# Staph. aureus = test: Agar dilution MIC, Staph. aureus; assay type: cell-based; conditions: Staphylococcus aureus
# Source text: (§1) The following Tables present typical minimum inhibitory concentrations (MIC's) in μg/ml for the compounds when evaluated against the indicated microorganisms.
# [2] = system: β-lactamase (organism 265A); test: Stability to β-lactamases, 265A; assay type: biochemical; conditions: lower numbers mean greater stability
# B. Fragilis = test: Expanded spectrum MIC, B. Fragilis; assay type: cell-based; conditions: Bacteroides fragilis, Table III
# Source text: (§2) A typical and preferred compound provided by this invention is 7-(2-naphthylglycylamido)-3-methyl-3-cephem-4-carboxylic acid, the compound of Example 3. The antibacterial activity of this compound and several others of the invention has been determined in standard in vitro agar dilution assays against a variety of gram positive microorganisms. The following Tables present typical minimum inhibitory concentrations (MIC's) in μg/ml for the compounds when evaluated against the indicated microorganisms. MIC's for several known compounds are also presented for comparison.
# [3] = system: β-lactamase (organism 1082E); test: Stability to β-lactamases, 1082E; assay type: biochemical; conditions: lower numbers mean greater stability
# β-lactamase (TEM) = test: Stability to β-lactamases, TEM; assay type: biochemical; conditions: lower numbers mean greater stability
# [4] = system: β-lactamase (organism PS185); test: Stability to β-lactamases, PS185; assay type: biochemical; conditions: lower numbers mean greater stability
# H. influ. = test: Agar dilution MIC, H. influenza; assay type: cell-based; conditions: read-out: MIC
# Source text: as §1
# Bacteroides fragilis = test: Susceptibility of anaerobes, agar-dilution, 24 hour MIC; assay type: cell-based
# Propionibacterum acnes = test: as above; assay type: cell-based
# Source text: as §2
# (§3) Susceptibility of Anaerobic Cocci
# (§4) Isolates by the Agar-Dilution
# (§5) Method-24 hour MIC's (μg/ml)
# [5] = system: Peptococcus Asaccharolyticus; test: Susceptibility of anaerobic cocci, agar-dilution, 24 hour MIC; assay type: cell-based; conditions: Peptoniphilus asaccharolyticus, isolate 1344
# Source text: as §2, §3, §4, §5
# P. magnus = test: as above; assay type: cell-based; conditions: Finegoldia magna
# Source text: as §2, §3, §4, §5
# Peptococcus Constellatus = test: as above; assay type: cell-based; conditions: Streptococcus constellatus, isolate 1468
# Source text: as §2, §3, §4, §5
# P. prevoti = test: as above; assay type: cell-based; conditions: isolate 1293
# Source text: as §2, §3, §4, §5
# [6] = system: Peptostreptococcus anaerobius; test: as above; assay type: cell-based
# Source text: as §2, §3, §4, §5
# [7] = system: Peptostreptococcus intermedius; test: as above; assay type: cell-based
# Source text: as §2, §3, §4, §5
# Klebsiella = test: Agar dilution MIC, Klebsiella; assay type: cell-based; conditions: Klebsiella
# Source text: as §2
# Strep. A = test: Agar dilution MIC, Strep. A; assay type: cell-based
# Source text: as §2
# Staph. epi = test: Agar dilution MIC, Staph. epi; assay type: cell-based
# Source text: as §1
# Strep. PN = test: Agar dilution MIC, Strep. PN; assay type: cell-based; conditions: Table I, strain PARK; read-out: MIC
# Source text: as §1
# [8] = Table III, strain 8438, read-out: MIC
# [9] = Table III, strain 9050, read-out: MIC
# [10] = Table III, strain 9136, read-out: MIC
compound,measurement,setting,value
"N[C@@H](C(=O)N[C@@H]1C(=O)N2C(C(=O)O)=C(Cl)CS[C@H]12)c1ccccc1 [Cefaclor, 7-phenylglycylamido-3-chloro-3-cephem-4-carboxylic acid, reference compound]",Stability to β-lactamases,[1],4605
same,MIC,Staph. aureus; [8],1 µg/mL
same,MIC,Staph. aureus; [9],2 µg/mL
same,MIC,Staph. aureus; [10],2 µg/mL
same,MIC,"Staph. aureus; Table III, strain 9290, read-out: MIC",8 µg/mL
same,MIC,"Staph. aureus; Table III, strain 9767, read-out: MIC",2 µg/mL
same,Stability to β-lactamases,[2],138
same,MIC,B. Fragilis; strain 180-821,64 µg/mL
same,MIC,B. Fragilis; strain 10668,64 µg/mL
same,MIC,B. Fragilis; strain 10683,16 µg/mL
same,MIC,B. Fragilis; strain 10695,32 µg/mL
same,MIC,B. Fragilis; strain 10750,> 64 µg/mL
same,MIC,B. Fragilis; strain 10774,> 64 µg/mL
same,MIC,B. Fragilis; strain 10817,64 µg/mL
same,MIC,B. Fragilis; strain 10837,> 64 µg/mL
same,MIC,B. Fragilis; strain 107266,16 µg/mL
same,MIC,B. Fragilis; strain 107268,16 µg/mL
same,Stability to β-lactamases,[3],65
same,Stability to β-lactamases,β-lactamase (TEM),23
same,Stability to β-lactamases,[4],71
same,MIC,"H. influ.; Table III, strain 101",2 µg/mL
same,MIC,"H. influ.; Table III, strain 102",16 µg/mL
same,MIC,"H. influ.; Table III, strain 103",2 µg/mL
same,MIC,"H. influ.; Table III, strain 104",1 µg/mL
same,MIC,"H. influ.; Table III, strain 105",1 µg/mL
same,MIC,"H. influ.; Table III, strain 106",2 µg/mL
same,MIC,"H. influ.; Table III, strain 107",2 µg/mL
same,MIC,"H. influ.; Table III, strain 108",1 µg/mL
same,MIC,"H. influ.; Table III, strain 109",2 µg/mL
same,MIC,"H. influ.; Table III, strain 110",1 µg/mL
same,MIC,"H. influ.; Table III, strain 111",1 µg/mL
"CO[C@@]1(NC(=O)Cc2cccs2)C(=O)N2C(C(=O)O)=C(COC(N)=O)CS[C@@H]21 [Cefoxitin, reference compound]",MIC,Bacteroides fragilis; isolate 200,8 µg/mL
same,MIC,Bacteroides fragilis; isolate 206,16 µg/mL
same,MIC,Bacteroides fragilis; isolate 3625,16 µg/mL
same,MIC,Bacteroides fragilis; isolate 7371A,8 µg/mL
same,MIC,Bacteroides fragilis; isolate 19671,16 µg/mL
same,MIC,Bacteroides fragilis; isolate 19681,32 µg/mL
same,MIC,Propionibacterum acnes; isolate 44,2 µg/mL
same,MIC,Propionibacterum acnes; isolate 79,8 µg/mL
same,MIC,Propionibacterum acnes; isolate 101,4 µg/mL
same,MIC,Propionibacterum acnes; isolate 104,4 µg/mL
same,MIC,Propionibacterum acnes; isolate 105,2 µg/mL
same,MIC,Propionibacterum acnes; isolate 5191,≤ 0.06 µg/mL
same,MIC,Propionibacterum acnes; isolate 5227,2 µg/mL
same,MIC,Propionibacterum acnes; isolate 5228,4 µg/mL
same,MIC,Propionibacterum acnes; isolate 5229,2 µg/mL
same,MIC,Propionibacterum acnes; isolate 5246,4 µg/mL
same,MIC,[5],0.25 µg/mL
same,MIC,P. magnus; isolate 1401,2 µg/mL
same,MIC,P. magnus; isolate 1477,0.5 µg/mL
same,MIC,Peptococcus Constellatus,8 µg/mL
same,MIC,P. prevoti,1 µg/mL
same,MIC,[6]; isolate 8,0.25 µg/mL
same,MIC,[6]; isolate 52,2 µg/mL
same,MIC,[6]; isolate 1477,1 µg/mL
same,MIC,[7]; isolate 1264,1 µg/mL
same,MIC,[7]; isolate 1524,4 µg/mL
same,MIC,[7]; isolate 1624,4 µg/mL
"CC1=C(C(=O)O)N2C(=O)[C@@H](NC(=O)[C@H](N)c3ccccc3)[C@H]2SC1 [Cephalexin, reference compound]",MIC,Klebsiella,4 µg/mL
same,MIC,Strep. A,0.5 µg/mL
same,MIC,Staph. epi,8 µg/mL
same,MIC,"Staph. epi; Table I, strain EPI1, read-out: MIC",32 µg/mL
same,MIC,"Staph. aureus; Table I, strain S13E",128 µg/mL
same,MIC,"Staph. aureus; Table III expanded spectrum, strain 8725, read-out: MIC",2 µg/mL
same,MIC,Staph. aureus; [8],1 µg/mL
same,MIC,"Staph. aureus; Table III, strain 8787, read-out: MIC",1 µg/mL
same,MIC,Staph. aureus; [9],2 µg/mL
same,MIC,Staph. aureus; [10],2 µg/mL
same,MIC,Strep. PN,2 µg/mL
same,MIC,"B. Fragilis; strain 180-821, read-out: MIC",16 µg/mL
same,MIC,"B. Fragilis; strain 10668, read-out: MIC",> 64 µg/mL
same,MIC,"B. Fragilis; strain 10683, read-out: MIC",> 64 µg/mL
same,MIC,"B. Fragilis; strain 10695, read-out: MIC",64 µg/mL
same,MIC,"B. Fragilis; strain 10750, read-out: MIC",64 µg/mL
same,MIC,"B. Fragilis; strain 10774, read-out: MIC",> 64 µg/mL
same,MIC,"B. Fragilis; strain 10817, read-out: MIC",16 µg/mL
same,MIC,"B. Fragilis; strain 10837, read-out: MIC",16 µg/mL
same,MIC,"B. Fragilis; strain 107266, read-out: MIC",32 µg/mL
same,MIC,"B. Fragilis; strain 107268, read-out: MIC",16 µg/mL
same,MIC,"H. influ.; Table I, strain 251",8 µg/mL
same,MIC,"H. influ.; Table I, strain BRUN",8 µg/mL
same,MIC,"H. influ.; Table III, strain 101",8 µg/mL
same,MIC,"H. influ.; Table III, strain 102",16 µg/mL
same,MIC,"H. influ.; Table III, strain 103",16 µg/mL
same,MIC,"H. influ.; Table III, strain 104",16 µg/mL
same,MIC,"H. influ.; Table III, strain 105",4 µg/mL
same,MIC,"H. influ.; Table III, strain 106",8 µg/mL
same,MIC,"H. influ.; Table III, strain 107",8 µg/mL
same,MIC,"H. influ.; Table III, strain 108",8 µg/mL
same,MIC,"H. influ.; Table III, strain 109",16 µg/mL
same,MIC,"H. influ.; Table III, strain 110",8 µg/mL
same,MIC,"H. influ.; Table III, strain 111",16 µg/mL
